Measurements: patent publication US7928135B2, “Benzene, pyridine, and pyridazine derivatives” (Serenex, Inc., priority 2005, dated 2011)

system: PC-3 cell proliferation; experiment: Cell proliferation assay (WST-1), PC-3; type: cell-based; details: Homo sapiens; PC-3 cells, WST-1 readout; read-out: inhibitory activity against PC-3 cell proliferation (IC50 range)
Procedure: A panel of cancer cell lines was obtained from the DCTP Tumor Repository, National Cancer Institute (Frederick, Md.) or ATCC (Rockville, Md.). Cell cultures were maintained in Hyclone RPMI 1640 medium (Logan, Utah) supplemented with 10% fetal bovine serum and 20 mM HEPES buffer, final pH 7.2, at 37° C. with a 5% CO2 atmosphere. Cultures were maintained at sub-confluent densities. Human umbilical vein endothelial cells (HUVEC) were purchased from Clonetics, a division of Cambrex (Walkersville, Md.). Cultures were established from cryopreserved stocks using Clonetics EGM-2 medium supplemented with 20 mM HEPES, final pH 7.2, at 37° C. with a 5% CO2 atmosphere.
For proliferation assays, cells were seeded with the appropriate medium into 96 well plates at 1,000-2,500 cells per well, depending on the cell line, and were incubated overnight. The following day, test compound, DMSO solution (negative control), or Actinomycin D (positive control) was added to the appropriate wells as 10× concentrated stocks prepared in phosphate buffered saline. The cell plates were then incubated for an additional 2-5 days, depending on the cell line, to allow proliferation to occur. To measure cell density, 50 μL of WST-1 solution (Roche Applied Science, Ind.) diluted 1:5 in phosphate buffered saline was added to each well, and the cells incubated for an additional 1-5 hrs., again depending on the cell line. Optical density was determined for each well at […] using a Tecan GeniosPro plate reader (RTP, NC). The percentage of cell growth was determined by comparing the cell growth in the presence of test compounds to the cells treated with DMSO vehicle (control, 100% growth) and cells treated with Actinomycin D (10 μM, 0% growth). […]

| Structure (SMILES) | IC50 [nM] |
| --- | --- |
| COCCNc1cc(-n2cc(C)c3c2CC(C)(C)CC3=O)ccc1C(N)=O [Compound 5, 2-(2-Methoxy-ethylamino)-4-(3,6,6-trimethyl-4-oxo-4,5,6,7-tetrahydro-indol-1-yl)-benzamide] | 500 to 5000 |
| CC1(C)CC(=O)c2c(C(F)(F)F)nn(-c3ccc(C(N)=O)c(NC4CCSCC4)c3)c2C1 [Compound 31, 4-(6,6-Dimethyl-4-oxo-3-trifluoromethyl-4,5,6,7-tetrahydro-indazol-1-yl)-2-(tetrahydro-thiopyran-4-ylamino)-benzamide] | < 500 |
| Cc1cc2c(n1-c1ccc(C(N)=O)c(Nc3ccccc3)c1)CCCC2=O [Compound 74, 2-anilino-4-(2-methyl-4-oxo-4,5,6,7-tetrahydro-1H-indol-1-yl)benzamide] | 5000 to 50000 |
| COc1cc(Nc2cc(-n3c(C)c(Cl)c4c3CC(C)(C)CC4=O)ccc2C(N)=O)cc(OC)c1OC [Compound 81, 4-(3-chloro-2,6,6-trimethyl-4-oxo-4,5,6,7-tetrahydro-1H-indol-1-yl)-2-[(3,4,5-trimethoxyphenyl)amino]benzamide] | < 500 |
| COCC(=O)Nc1cc(-n2cc(C)c3c2CC(C)(C)CC3=O)ccc1C(N)=O [Compound 101, 2-[(methoxyacetyl)amino]-4-(3,6,6-trimethyl-4-oxo-4,5,6,7-tetrahydro-1H-indol-1-yl)benzamide] | 500 to 5000 |
| CC1(C)CC(=O)c2c(-c3ccccc3)cn(-c3ccc(C(N)=O)cc3)c2C1 [Compound 110, 4-(6,6-dimethyl-4-oxo-3-phenyl-4,5,6,7-tetrahydro-1H-indol-1-yl)benzamide] | 5000 to 50000 |
| Cc1cn(-c2ccc(C(N)=O)c(NCCNC(=O)CO)c2)c2c1C(=O)CC(C)(C)C2 [Compound 112, 2-{[2-(glycoloylamino)ethyl]amino}-4-(3,6,6-trimethyl-4-oxo-4,5,6,7-tetrahydro-1H-indol-1-yl)benzamide] | 5000 to 50000 |
| CC1(C)CC(=O)c2c(C(F)F)nn(-c3ccc(C(N)=O)c(NC4CC=CC4)c3)c2C1 [Compound 116, 2-(cyclopent-3-en-1-ylamino)-4-[3-(difluoromethyl)-6,6-dimethyl-4-oxo-4,5,6,7-tetrahydro-1H-indazol-1-yl]benzamide] | < 500 |
| CC1(C)CC(=O)c2c(C(F)(F)F)nn(-c3ccc(C(N)=O)c(NC4CCN(S(C)(=O)=O)CC4)c3)c2C1 [Compound 124, 4-[6,6-dimethyl-4-oxo-3-(trifluoromethyl)-4,5,6,7-tetrahydro-1H-indazol-1-yl]-2-{[1-(methylsulfonyl)piperidin-4-yl]amino}benzamide] | < 500 |
| Cc1nn(-c2ccc(C(N)=O)c(NC3CCN(C(=O)CCN4CCOCC4)CC3)c2)c2c1C(=O)CC(C)(C)C2 [Compound 127, 2-{[1-(3-morpholin-4-ylpropanoyl)piperidin-4-yl]amino}-4-(3,6,6-trimethyl-4-oxo-4,5,6,7-tetrahydro-1H-indazol-1-yl)benzamide] | < 500 |
| Cc1nn(-c2ccc(C(N)=O)c(NC3CCN(C(=O)CN)CC3)c2)c2c1C(=O)CC(C)(C)C2 [Compound 129, 2-[(1-glycylpiperidin-4-yl)amino]-4-(3,6,6-trimethyl-4-oxo-4,5,6,7-tetrahydro-1H-indazol-1-yl)benzamide] | 500 to 5000 |

Now from value to molecule:

| IC50 [nM] | Structure (SMILES) |
| --- | --- |
| < 500 | COc1cc(Nc2cc(-n3nc(C)c4c3CC(C)(C)CC4=O)ccc2C(N)=O)cc(OC)c1OC [Compound 19, 4-(6,6-Dimethyl-4-oxo-3-methyl-4,5,6,7-tetrahydro-indazol-1-yl)-2-(3,4,5-trimethoxyanilino)-benzamide] |
| < 500 | COc1ccc(Nc2cc(-n3nc(C)c4c3CC(C)(C)CC4=O)ccc2C(N)=O)cc1OCCN(C)C [Compound 27, 2-[3-(2-Dimethylamino-ethoxy)-4-methoxy-phenylamino]-4-(3,6,6-trimethyl-4-oxo-4,5,6,7-tetrahydro-indazol-1-yl)-benzamide] |
| 500 to 5000 | C#Cc1cccc(Nc2cc(-n3c(C)cc4c3CC(C)(C)CC4=O)ccc2C(N)=O)c1 [Compound 72, 2-[(3-ethynylphenyl)amino]-4-(2,6,6-trimethyl-4-oxo-4,5,6,7-tetrahydro-1H-indol-1-yl)benzamide] |
| 500 to 5000 | Cc1cc2c(n1-c1ccc(C(N)=O)c(Nc3ccc(O)cc3)c1)CC(C)(C)CC2=O [Compound 82, 2-[(4-hydroxyphenyl)amino]-4-(2,6,6-trimethyl-4-oxo-4,5,6,7-tetrahydro-1H-indol-1-yl)benzamide] |
| 500 to 5000 | Cc1cc(Nc2cc(-n3c(C)cc4c3CC(C)(C)CC4=O)ccc2C(N)=O)no1 [Compound 84, 2-[(5-methylisoxazol-3-yl)amino]-4-(2,6,6-trimethyl-4-oxo-4,5,6,7-tetrahydro-1H-indol-1-yl)benzamide] |
| 500 to 5000 | COc1ccc(Nc2cc(-n3c(C)cc4c3CC(C)(C)CC4=O)ccc2C(N)=O)cc1OCCCN(C)C [Compound 93, 2-({3-[3-(dimethylamino)propoxy]-4-methoxyphenyl}amino)-4-(2,6,6-trimethyl-4-oxo-4,5,6,7-tetrahydro-1H-indol-1-yl)benzamide] |
| < 500 | Cc1cn(-c2ccc(C(N)=O)c(Nc3ccncc3)c2)c2c1C(=O)CC(C)(C)C2 [Compound 97, 2-(pyridin-4-ylamino)-4-(3,6,6-trimethyl-4-oxo-4,5,6,7-tetrahydro-1H-indol-1-yl)benzamide] |
| < 500 | Cc1nn(-c2ccc(C(N)=O)c(NCC3CC3)c2)c2c1C(=O)CC(C)(C)C2 [Compound 100, 2-[(cyclopropylmethyl)amino]-4-(3,6,6-trimethyl-4-oxo-4,5,6,7-tetrahydro-1H-indazol-1-yl)benzamide] |
| < 500 | COc1ccc(Nc2cc(-n3cc(C)c4c3CC(C)(C)CC4=O)ccc2C(N)=O)cc1OCCN(C)C [Compound 104, 2-({3-[2-(dimethylamino)ethoxy]-4-methoxyphenyl}amino)-4-(3,6,6-trimethyl-4-oxo-4,5,6,7-tetrahydro-1H-indol-1-yl)benzamide] |
| 500 to 5000 | Cc1nn(-c2ccc(C(N)=O)c(N[C@H](C)c3ccccc3)c2)c2c1C(=O)CC(C)(C)C2 [Compound 106, 2-{[(1R)-1-phenylethyl]amino}-4-(3,6,6-trimethyl-4-oxo-4,5,6,7-tetrahydro-1H-indazol-1-yl)benzamide] |
| < 500 | Cc1cn(-c2ccc(C(N)=O)c(Nc3ccnc(OCCN(C)C)c3)c2)c2c1C(=O)CC(C)(C)C2 [Compound 108, 2-({2-[2-(dimethylamino)ethoxy]pyridin-4-yl}amino)-4-(3,6,6-trimethyl-4-oxo-4,5,6,7-tetrahydro-1H-indol-1-yl)benzamide] |
| < 500 | Cc1nn(-c2ccc(C(N)=O)c(NCCS(C)(=O)=O)c2)c2c1C(=O)CC(C)(C)C2 [Compound 113, 2-{[2-(methylsulfonyl)ethyl]amino}-4-(3,6,6-trimethyl-4-oxo-4,5,6,7-tetrahydro-1H-indazol-1-yl)benzamide] |
| < 500 | COc1ccc(Nc2cc(-n3nc(C)c4c3CC(C)(C)CC4=O)ccc2C(N)=O)cc1 [Compound 114, 2-[(4-methoxyphenyl)amino]-4-(3,6,6-trimethyl-4-oxo-4,5,6,7-tetrahydro-1H-indazol-1-yl)benzamide] |
| 500 to 5000 | Cc1nn(-c2ccc(C(N)=O)c(Nc3cccc([S+](C)[O-])c3)c2)c2c1C(=O)CC(C)(C)C2 (stereo not shown) [Compound 123, 2-{[3-(methylsulfinyl)phenyl]amino}-4-(3,6,6-trimethyl-4-oxo-4,5,6,7-tetrahydro-1H-indazol-1-yl)benzamide] |
